The molecules below were run against L-lactate dehydrogenase (Homo sapiens, UniProt V9HWB9) (assay: Inhibition of LDH (unknown origin) assessed as reduction in lactate production by cell-based assay).
Work on NS(=O)(=O)c1ccc(Cc2c(-c3ccc(F)c(C4=CCC(F)(F)CC4)c3)nn(-c3nc(C(=O)O)cs3)c2CC2CC2)cc1F yielded an IC50 of less than 1 µM.
CC(=O)c1cc(-c2nn(-c3nc(C(=O)O)cs3)c(CC3CC3)c2Cc2ccc(S(N)(=O)=O)c(F)c2)ccc1F gave an IC50 of less than 1 µM.
With Cc1ccc(-c2cc(-c3nn(-c4nc(C(=O)O)cs4)c(CC4CC4)c3Cc3ccc(S(N)(=O)=O)c(F)c3)ccc2F)cc1F the IC50 was less than 1 µM.
Work on CC1CC=C(c2cc(-c3nn(-c4nc(C(=O)O)cs4)c(CC4CC4)c3Cc3ccc(S(N)(=O)=O)c(F)c3)ccc2F)CC1 (stereo unspecified) yielded an IC50 of less than 1 µM.
CC1CCCC=C1c1cc(-c2nn(-c3nc(C(=O)O)cs3)c(CC3CC3)c2Cc2ccc(S(N)(=O)=O)c(F)c2)ccc1F (stereo unspecified) was tested, and the IC50 was less than 1 µM.
Cc1ccc(/C=C/c2cccc(-c3nn(-c4nc(C(=O)O)cs4)c(CC4CC4)c3Cc3ccc(S(N)(=O)=O)c(F)c3)c2)s1 was tested, and the IC50 was less than 1 µM.

Reference: ChEMBL document CHEMBL4251691, “Thiazole Derivatives as Inhibitors for the Treatment of Cancer Cells Resistant” (ACS Med Chem Lett, 2018)
